{"source": "patent US6713098B2", "about": "“Phytochemotherapy for cancer” (priority 2001, dated 2004)", "system": "MCF-7 cells", "experiment": "Cell growth inhibition by [3H]thymidine incorporation, PRPC fractions and PRPC/IEC/RPC sub-fractions", "format": "cell-based, human", "experimental": "(§1) Sub-confluent cells were serum-starved overnight and then were left untreated, i.e., no serum (−), were treated with serum (+) or with isolated V. amygdalina fractions 8, 9, 10, 14, 15, 16, 17, 18, 19, or 20 for 18 hours. Following incubation, all cells were pulsed with 1 μCi/ml [^3H]thymidine for an additional 4-6 hours as described in Example 2. The results represent the mean ±SD of three independent experiments. *P<0.05; **P<0.01.\nas §1, with “100 μg/ml of” for “isolated”, “fractions” for “fractions 8, 9, 10, 14,”\nSub-confluent cells were serum-starved overnight and then were left untreated, i.e., no serum (−), were treated with serum (+) or with 100 ng/ml of V. amygdalina fractions 19-5-16, 19-5-17, or 19-5-13 for 18 hours. […]\nFraction 19 of the PRPC separation described in Example 3 was subjected to IEC fractionation as described in Example 4 to produce 10 IEC sub-fractions designated IEC sub-fractions 19-1 to 19-10. […] Finally, Two RPC sub-fractions, specifically 19-5-16 and 19-5-17, were further analyzed and shown to be pure peptides. […]", "data": [{"substance": "19-5-16 (DTKDVVNVTG)", "values": [{"measurement": "inhibition of cell DNA synthesis", "setting": "100 nanograms/ml, MCF-7, FIG. 5", "result": 4, "unit": "fold"}, {"measurement": "potency in growth inhibition assay (in words)", "setting": "RPC sub-fractions of 19-5, assay as in Example 6", "result": "exceptionally high potency"}]}]}
